One assay addresses Phosphodiesterase 1 (Homo sapiens, UniProt P54750+Q01064+Q14123). Put plainly: Inhibition of phosphodiesterase 1. Format: protein assay.
In assay [1] the target is cGMP-specific 3',5'-cyclic phosphodiesterase (Homo sapiens, UniProt O76074).
Description: Inhibition of phosphodiesterase 5

SMILES strings stand for the structures.

One may read the IC50 as the midpoint of a concentration-inhibition curve. A low value points to higher potency.

At Phosphodiesterase 1, `CCCn1cnc2c(O)nc(-c3ccccc3OCC)nc21` yielded a concentration for half-maximal inhibition (IC50) of 0.01 µM.

For the molecule `CCOc1ccc(S(=O)(=O)N2CCN(CCO)CC2)cc1-c1nc(O)c2onc(C3CCCC3)c2n1`, the values for the IC50 (against Phosphodiesterase 1; in assay [1]) were 0.03 µM and 0.01 µM, respectively.

As for `CCOc1ccccc1-c1nc(O)c2onc(C3CCCC3)c2n1`, the IC50 on Phosphodiesterase 1 is 0.2 µM; in assay [1], 0.02 µM.

Take `CCOc1ccc(S(=O)(=O)N2CCN(C)CC2)cc1-c1nc(O)c2c(CC)nc(C3CCCC3)n2n1`: the IC50 is above 1 µM against Phosphodiesterase 1 and 0.007 µM in assay [1].

Regarding `CCCc1nc(CC)c2c(O)nc(-c3cc(S(=O)(=O)N4CCN(C)CC4)ccc3OCC)nn12`, the half-maximal inhibitory concentration (IC50) on Phosphodiesterase 1 is above 1 µM; in assay [1], 0.008 µM.

For the molecule `CCOc1ccccc1-c1nc(O)c2nnc(C3CCCC3)n2n1`, the concentration for half-maximal inhibition (IC50) on Phosphodiesterase 1 turned out to be 0.05 µM; in assay [1], 0.2 µM.

For `CCOc1ccc(S(=O)(=O)N2CCN(CCO)CC2)cc1-c1nc(O)c2nnc(C3CCCC3)n2n1`, the 50% inhibitory concentration (IC50) (on Phosphodiesterase 1; in assay [1]) was 0.05 µM each time.

Take `CCOc1ccc(S(=O)(=O)N2CCN(C)CC2)cc1-c1nc(O)c2c(C)nc(C3CCCC3)n2n1`: the IC50 on Phosphodiesterase 1 is 0.01 µM; in assay [1], 0.001 µM.

Take `CCOc1ccccc1-c1nc(O)c2ncn(C3CCCC3)c2n1`: the figures for the half-inhibitory concentration (IC50) (at Phosphodiesterase 1; in assay [1]) were 0.5 µM and 0.05 µM, respectively.

Turning to `CCOc1ccccc1-c1nc(O)c2c(C)nc(C3CCCC3)n2n1`, the IC50 stood at 0.03 µM against Phosphodiesterase 1 and 0.005 µM in assay [1].

As for `CCOc1ccccc1-c1nc(O)c2nnn(C3CCCC3)c2n1`, the figures for the IC50 (against Phosphodiesterase 1; in assay [1]) were 0.8 µM and 0.5 µM, respectively.

For `CCOc1ccc(S(=O)(=O)N2CCN(CCO)CC2)cc1-c1nc(O)n2c(C)nc(C3CCCC3)c2n1`, the IC50 on Phosphodiesterase 1 was 0.03 µM; in assay [1], 0.01 µM.

Molecule `CCCc1nc(C)c2c(=O)[nH]c(-c3ccccc3OCC)nn12` gave an IC50 at Phosphodiesterase 1 of 0.3 µM.

For `CCOc1ccccc1-c1nc(O)c2ncn(C3CCC3)c2n1`, the IC50 was found to be 1 µM against Phosphodiesterase 1 and 0.1 µM in assay [1].

`CCOc1ccc(S(=O)(=O)N2CCN(CCO)CC2)cc1-c1nc(O)c2c(C)nc(C3CCCC3)n2n1`: the IC50 against Phosphodiesterase 1 was determined as 0.01 µM; in assay [1] it was 0.001 µM.

With `CCOc1ccc(S(=O)(=O)N2CCN(CCO)CC2)cc1-c1nc(O)c2c(n1)c(C1CCCC1)nn2C`, the half-inhibitory concentration (IC50) against Phosphodiesterase 1 turned out to be 0.01 µM; in assay [1], 0.005 µM.

`CCOc1ccc(S(=O)(=O)N2CCN(CCO)CC2)cc1-c1nc(O)c2c(C)nc(C)n2n1`: the IC50 against Phosphodiesterase 1 worked out at 1 µM; in assay [1], 0.01 µM.

For the molecule `CCCc1n[nH]c2c(O)nc(-c3ccccc3OCC)nc12`, half-maximal inhibition in assay [1] (IC50) was put at 0.05 µM.

`CCCc1nc(C)c2c(=O)[nH]c(-c3cc(S(=O)(=O)N4CCN(C)CC4)ccc3OCC)nn12` registered an IC50 against Phosphodiesterase 1 of 0.3 µM.

Molecule `CCCc1nn(C)c2c(=O)[nH]c(-c3ccccc3OCC)nc12` had an IC50 against Phosphodiesterase 1 of 0.79 µM.

On to `CCCn1nc(C)c2c(=O)[nH]c(-c3cc(S(=O)(=O)N4CCN(C)CC4)ccc3OCC)nc21`, for which the IC50 against Phosphodiesterase 1 is 1 µM; in assay [1] it was 0.008 µM.

With `CCCc1nc(C)n2c(O)nc(-c3ccccc3OCC)nc12`, the IC50 at Phosphodiesterase 1 stood at 0.2 µM; in assay [1], 0.04 µM.

For the molecule `CCOc1ccc(S(=O)(=O)N2CCN(C)CC2)cc1-c1nc2c(c(CC)nn2C2CCCC2)c(=O)[nH]1`, the IC50 is above 1 µM against Phosphodiesterase 1 and 0.04 µM in assay [1].

On to `CCCn1cnc2c(O)nc(-c3cc(S(=O)(=O)N4CCN(C)CC4)ccc3OCC)nc21`, for which half-maximal inhibition in assay [1] (IC50) was put at 0.01 µM. That is a double-digit nanomolar value.

In the case of `CCCc1nc(C)n2c(O)nc(-c3cc(S(=O)(=O)N4CCN(C)CC4)ccc3OCC)nc12`, the IC50 at Phosphodiesterase 1 turned out to be 0.5 µM; in assay [1], 0.01 µM.

In assay [1], `CCCn1nnc2c(O)nc(-c3ccccc3OCC)nc21` had an IC50 of 0.3 µM.

For `CCOc1ccccc1-c1nc(O)n2c(C)nc(C3CCCC3)c2n1`, the IC50 was determined as 0.04 µM against Phosphodiesterase 1 and 0.02 µM in assay [1].

In assay [1], `CCCn1nc(C)c2c(=O)[nH]c(-c3ccccc3OCC)nc21` came in with an IC50 of 0.001 µM.

For `CCOc1ccccc1-c1nc(O)c2c(C)nc(C)n2n1`, the IC50 against Phosphodiesterase 1 was found to be 1 µM; in assay [1], 0.2 µM.

As to `CCCc1nc(C)c2c(O)nc(-c3cc(S(=O)(=O)N4CCN(CCO)CC4)ccc3OCC)nn12`, the IC50 against Phosphodiesterase 1 was determined as 0.02 µM; in assay [1], 0.005 µM.

As to `CCCn1nc(CC)c2c(=O)[nH]c(-c3cc(S(=O)(=O)N4CCN(C)CC4)ccc3OCC)nc21`, the IC50 was above 1 µM against Phosphodiesterase 1 and 0.02 µM in assay [1].

For `CCOc1ccccc1-c1nc(O)c2ncn(C3CC3)c2n1`, the half-maximal inhibitory concentration (IC50) amounted to 1 µM against Phosphodiesterase 1 and 0.3 µM in assay [1].

Source of the values: ChEMBL document CHEMBL1142799, “Comparison of different heterocyclic scaffolds as substrate analog PDE5 inhibitors” (Bioorg Med Chem Lett, 2005).
